Test system: miRNAs in diaphragm muscle of mdx mice
Assay: TaqMan low-density array (TLDA) miRNA profiling of diaphragm, discovery set (prophylactic mdx trial)
Format: in vivo, mouse
Text: Archival muscle samples (diaphragm) from two separate preclinical studies were obtained, with each trial showing a significant benefit from both prednisolone and vamorolone drug treatments (23). Prednisolone was used because it is the active form of prednisone, the current DMD standard of care. The first, “discovery set” of diaphragm muscles was from a prophylactic trial design where 2-week old (postnatal day 15) mdx or wild type control mice received oral dosing for 6 weeks with vehicle (cherry syrup), prednisolone (5 mg/kg), or vamorolone (15 mg/kg) as previously reported (23). The second, “validation set” of diaphragm muscles was from an extended trial in older mice where mdx or wild type mice were subjected to treadmill running to unmask mild phenotypes. Mice in this validation set were treated with either vehicle, prednisolone (5 mg/kg) or vamorolone (45 mg/kg) for four months beginning at two months of age (23). At the endpoint of each trial, diaphragm muscles were harvested and frozen in liquid nitrogen-cooled isopentane.
We extracted total RNA from 5 diaphragm muscles per treatment group in the discovery set of samples from 8-week old mice. RNA was extracted using a modified TRIzol protocol with isopropanol precipitation at −20° C. overnight. This RNA was reverse transcribed to cDNA using a High Capacity cDNA Reverse Transcription Kit with RNase Inhibitor (ThermoFisher; Carlsbad, Calif.), with miRNA-specific Megaplex RT Primers, Rodent Pools Set version 3.0 (ThermoFisher; Carlsbad, Calif.). Levels of each of the miRNAs were profiled in the discovery set using TAQMAN Array Rodent MiRNA A+B Cards Set v3.0 (ThermoFisher; Carlsbad, Calif.).
In the discovery set experiments, levels of each miRNA were quantified in TaqMan low-density arrays using ThermoFisher Cloud software with the Relative Quantification Application (ThermoFisher; Carlsbad, Calif.) tool. Data was analyzed by ANOVA with post-hoc comparison of each group to the mdx vehicle-treated group. […] A P-value of P≤0.05 was set as the significance threshold, without adjustment for multiple comparisons. To reduce false-positive discovery in this setting, an evidence-based approach was used to identify efficacy associated miRNAs where 1) results from the multiple groups were cross-referenced, and 2) all candidate miRNAs identified in this discovery set were then assayed in a separate validation set of mice. For the validation set experiments, levels of each individual miRNA were assayed in samples from a second, independent preclinical trial in adult mdx mice. Data from individual TaqMan Assays was quantified using QuantStudio Real-Time PCR version 1.3 software (Applied Biosystems; Foster City, Calif.). The levels of all miRNAs were normalized to the geometric mean of multiple control genes (60, 70). Comparison of groups was made by ANOVA with Holm-Sidak post-hoc test comparing each group to mdx vehicle.
To visualize behavior of miRNAs within individual mice for each group, heat map images were generated. Heat maps were generated using Rq values of TLDA array data exported from the Relative Quantification Application of the ThermoFisher Cloud software (ThermoFisher; Carlsbad, Calif.) tool. Heat maps of miRNA expression were produced using Hierarchical Clustering Explorer Version 3.5 (at www.cs.umd.edu/hcil/multi-cluster/) produced by the Human Computer Interaction Laboratory (University of Maryland; College Park, Md.).
To examine miRNA expression TaqMan low density qPCR array cards were used to profile approximately 750 miRNAs within diaphragm muscle from a discovery set of mice. Samples for this experiment came from a trial that utilized a prophylactic approach (23). Briefly, mdx mice undergo a stage of peak severity characterized by widespread inflammation and necrosis from approximately 3-8 weeks of age, followed by a recovery stage where mice show milder phenotypes (25). […]

[1] = discovery set diaphragm muscle, mdx mice, Pred 5 mg/kg, Vam 15 mg/kg
[2] = mdx diaphragm, vs untreated mdx, Pred 5 mg/kg, Vam 15 mg/kg

`C[C@]12C=CC(=O)C=C1CC[C@@H]1[C@@H]2[C@@H](O)C[C@@]2(C)[C@H]1CC[C@]2(O)C(=O)CO` [prednisolone] was tested, and the “miRNA 142-3p % expression in comparison to mdx vehicle” value [1] was 50 ± 13 %, the “miRNA 142-5p % expression in comparison to mdx vehicle” value [1] was 44 ± 11 % and the “miRNA 146a % expression in comparison to mdx vehicle” value [1] was 39 ± 6 %. The “miRNA 301a % expression in comparison to mdx vehicle” value [1] was 70 ± 18 %, the “miRNA 324-3p % expression in comparison to mdx vehicle” value [1] was 71 ± 14 % and the “miRNA 455-3p % expression in comparison to mdx vehicle” value [1] was 62 ± 18 %. For the same molecule, the “miRNA 455-5p % expression in comparison to mdx vehicle” value [1] was 64 ± 30 %, the “miRNA 497 % expression in comparison to mdx vehicle” value [1] was 49 ± 11 % and the “miRNA 652 % expression in comparison to mdx vehicle” value [1] was 62 ± 14 %. The “number of miRNAs significantly changed in dystrophic muscle” value (mdx diaphragm, 8-week-old mice, oral dosing 6 weeks, prednisolone 5 mg/kg, vamorolone 15 mg/kg, versus untreated mdx, P≤0.05) was 76, the “expression of 14q32 (mouse 12F1) cluster miRNAs miR-134, miR-370, miR-409, miR-433, miR-493, miR-543” value (mdx diaphragm, discovery set, prednisolone 5 mg/kg) was “specifically activated” and the “number of miRNAs significantly increased by treatment” value (mdx diaphragm, discovery set, prednisolone 5 mg/kg, vamorolone 15 mg/kg, P≤0.05) was 9. For the same molecule, the “expression of the nine efficacy-associated miRNAs elevated in dystrophy” value (mdx diaphragm, discovery set, versus mdx vehicle) was “returned towards healthy wild type levels”, the “Rq hsa-let-7i#-002172” value [2] was 0.714 and the “Rq hsa-miR-30e-3p-000422” value [2] was 0.739. The “Rq hsa-miR-22#-002301” value [2] was 0.641, the “Rq hsa-miR-140-3p-002234” value [2] was 0.681 and the “Rq hsa-miR-143-000466” value [2] was 1.096. The “Rq hsa-miR-154#-000478” value [2] was 1.585, the “Rq hsa-miR-190b-002263” value [2] was 0.547 and the “Rq hsa-miR-200c-000505” value [2] was 0.486. For the same molecule, the “Rq hsa-miR-206-000510” value [2] was 1.017, the “Rq hsa-miR-213-000516” value [2] was 0.622 and the “Rq hsa-miR-214#-002293” value [2] was 0.82. For the same molecule, the “Rq hsa-miR-214-000517” value [2] was 0.767, the “Rq hsa-miR-376a#-001287” value [2] was 0.978 and the “Rq hsa-miR-455-001280” value [2] was 0.6. The “Rq hsa-miR-744#-002325” value [2] was 0.537, the “Rq mmu-let-7e-002406” value [2] was 0.66 and the “Rq mmu-let-7a-000377” value [2] was 0.491. The “Rq mmu-let-7b-000378” value [2] was 0.655, the “Rq mmu-let-7c-1#-002479” value [2] was 1.427 and the “Rq mmu-let-7c-000379” value [2] was 0.651. For the same molecule, the “Rq mmu-let-7i-002221” value [2] was 0.775, the “Rq mmu-let-7d#-001178” value [2] was 0.556 and the “Rq mmu-let-7d-002283” value [2] was 0.714. The “Rq mmu-miR-1-002222” value [2] was 0.868, the “Rq mmu-miR-15a-000389” value [2] was 0.635 and the “Rq mmu-miR-16-000391” value [2] was 0.663. The “Rq mmu-miR-18a-002422” value [2] was 1.284, the “Rq mmu-miR-19a-000395” value [2] was 0.846 and the “Rq mmu-miR-20a#-002491” value [2] was 0.771. The “Rq mmu-miR-21#-002493” value [2] was 0.707, the “Rq mmu-miR-21-000397” value [2] was 0.659 and the “Rq mmu-miR-23b-000400” value [2] was 0.621. For the same molecule, the “Rq mmu-miR-25-000403” value [2] was 0.75, the “Rq mmu-miR-26a-000405” value [2] was 0.7 and the “Rq mmu-miR-27b-000409” value [2] was 0.796. For the same molecule, the “Rq mmu-miR-28-000411” value [2] was 0.759, the “Rq mmu-miR-30e-002223” value [2] was 0.785 and the “Rq mmu-miR-30a-000417” value [2] was 0.756. For the same molecule, the “Rq mmu-miR-30b-000602” value [2] was 0.785, the “Rq mmu-miR-30c-000419” value [2] was 0.739 and the “Rq mmu-miR-31#-002495” value [2] was 0.955. For the same molecule, the “Rq mmu-miR-31-000185” value [2] was 1.028, the “Rq mmu-miR-34a-000426” value [2] was 0.712 and the “Rq mmu-miR-34b-3p-002618” value [2] was 0.607. The “Rq mmu-miR-34c#-002584” value [2] was 0.623, the “Rq mmu-miR-34c-000428” value [2] was 0.655 and the “Rq mmu-miR-99b-000436” value [2] was 0.783. The “Rq mmu-miR-100-000437” value [2] was 0.586, the “Rq mmu-miR-103-000439” value [2] was 0.679 and the “Rq mmu-miR-122-002245” value [2] was 0.241. The “Rq mmu-miR-125a-3p-002199” value [2] was 0.666, the “Rq mmu-miR-125b#-002508” value [2] was 0.453 and the “Rq mmu-miR-125b-3p-002378” value [2] was 0.561. For the same molecule, the “Rq mmu-miR-125b-5p-000449” value [2] was 0.676, the “Rq mmu-miR-126-3p-002228” value [2] was 0.697 and the “Rq mmu-miR-126-5p-000451” value [2] was 0.682. The “Rq mmu-miR-127-000452” value [2] was 1.382, the “Rq mmu-miR-128a-002216” value [2] was 0.871 and the “Rq mmu-miR-130a-000454” value [2] was 0.758. The “Rq mmu-miR-130b#-002460” value [2] was 0.443, the “Rq mmu-miR-130b-000456” value [2] was 0.757 and the “Rq mmu-miR-133a-002246” value [2] was 0.942. For the same molecule, the “Rq mmu-miR-134-001186” value [2] was 1.922, the “Rq mmu-miR-136-002511” value [2] was 0.705 and the “Rq mmu-miR-138#-002554” value [2] was 0.214. The “Rq mmu-miR-140-001187” value [2] was 0.775, the “Rq mmu-miR-142-3p-000464” value [2] was 0.485 and the “Rq mmu-miR-142-5p-002248” value [2] was 0.438. The “Rq mmu-miR-143-002249” value [2] was 0.742, the “Rq mmu-miR-145-002278” value [2] was 0.694 and the “Rq mmu-miR-146a-000468” value [2] was 0.397. The “Rq mmu-miR-146b#-002453” value [2] was 0.088, the “Rq mmu-miR-146b-001097” value [2] was 0.555 and the “Rq mmu-miR-148a-000470” value [2] was 0.602. For the same molecule, the “Rq mmu-miR-148b-000471” value [2] was 0.512, the “Rq mmu-miR-150#-002570” value [2] was 0.297 and the “Rq mmu-miR-150-000473” value [2] was 0.516. The “Rq mmu-miR-151-3p-001190” value [2] was 0.877, the “Rq mmu-miR-152-000475” value [2] was 0.721 and the “Rq mmu-miR-154-000477” value [2] was 0.606. The “Rq mmu-miR-155-002571” value [2] was 0.742, the “Rq mmu-miR-181a-000480” value [2] was 0.728 and the “Rq mmu-miR-181c-000482” value [2] was 0.624. For the same molecule, the “Rq mmu-miR-185-002271” value [2] was 0.818, the “Rq mmu-miR-186-002285” value [2] was 0.866 and the “Rq mmu-miR-191-002299” value [2] was 0.771. For the same molecule, the “Rq mmu-miR-193#-002577” value [2] was 0.799, the “Rq mmu-miR-195-000494” value [2] was 0.491 and the “Rq mmu-miR-199a-3p-002304” value [2] was 0.844. For the same molecule, the “Rq mmu-miR-199b-001131” value [2] was 0.771, the “Rq mmu-miR-200c-002300” value [2] was 0.508 and the “Rq mmu-miR-203-000507” value [2] was 0.575. For the same molecule, the “Rq mmu-miR-204-000508” value [2] was 0.722 and the “Rq mmu-miR-210-000512” value [2] was 0.759.

— patent publication US12281304B2, “Compositions and methods for treating and preventing muscular disorders and dystrophies, steroid side effects, and inflammation” (Children's National Medical Center, priority 2018, dated 2025)
